Experimental data published in ChEMBL document CHEMBL3885881, “DrugMatrix”.
Values joined by “and” are separate entries in the source; they are usually repeats but may differ in a detail not shown here. Equal values may be shown once.

Species: Rattus norvegicus
Assay: DrugMatrix - Regimen: Daily Repeat
Format: toxicity, organism-based, Sprague-Dawley
Set-up: regimen Daily Repeat, gender Male, age 6-8 weeks
Conditions: in vivo, po, route oral GAVAGE, vehicle .5 % CMC; for BASOPHIL / EOSINOPHIL / ERYTHROCYTE COUNT / HEMATOCRIT / HEMOGLOBIN / LEUKOCYTE COUNT / LYMPHOCYTE / MEAN CORPUSCULAR HEMOGLOBIN / MEAN CORPUSCULAR HEMOGLOBIN CONCENTRATION / MEAN CORPUSCULAR VOLUME / MONOCYTE / NEUTROPHIL / PLATELET COUNT / ABSOLUTE BASOPHIL / ABSOLUTE EOSINOPHIL / ABSOLUTE LYMPHOCYTE / ABSOLUTE MONOCYTE / ABSOLUTE SEGMENTED NEUTROPHIL: tissue Blood; for ALANINE AMINOTRANSFERASE / ALBUMIN / ALKALINE PHOSPHATASE / ASPARTATE AMINOTRANSFERASE / BLOOD UREA NITROGEN / CHLORIDE / CHOLESTEROL / CREATINE PHOSPHOKINASE / CREATININE / GLUCOSE / PHOSPHORUS / POTASSIUM / SODIUM / TOTAL BILIRUBIN / TOTAL PROTEIN / LACTATE DEHYDROGENASE / LIPASE / URIC ACID: tissue Plasma
[1] = 0 mg/kg, 72 h, dose level Control, time 3 day
[2] = 0 mg/kg, 120 h, dose level Control, time 5 day
[3] = 0 mg/kg, 2184 h, dose level Control, time 91 day
[4] = 0 mg/kg, […], dose level Control, time 28 day
[5] = 80 mg/kg, 120 h, dose level Low, time 5 day
[6] = 80 mg/kg, 2184 h, dose level Low, time 91 day

**Q.** What does the source list for O=c1cc(-c2ccccc2)oc2ccc3ccccc3c12 [BETA-NAPHTHOFLAVONE]?
**A.** BASOPHIL [1]: 0.52%; EOSINOPHIL [1]: 0.48%; ERYTHROCYTE COUNT [1]: 6.68 x10E6/uL; HEMATOCRIT [1]: 43.07%; HEMOGLOBIN [1]: 13.48 G/DL; LEUKOCYTE COUNT [1]: 11.41 x10E3/uL; LYMPHOCYTE [1]: 80.78%; MEAN CORPUSCULAR HEMOGLOBIN [1]: 20.2 pg; MEAN CORPUSCULAR HEMOGLOBIN CONCENTRATION [1]: 31.32 G/DL; MEAN CORPUSCULAR VOLUME [1]: 64.45 fL; MONOCYTE [1]: 2.23%; NEUTROPHIL [1]: 14.73%; PLATELET COUNT [1]: 1225.83 x10E3/uL; ALANINE AMINOTRANSFERASE [1]: 44.5 u/L; ALBUMIN [1]: 3.62 G/DL; ALKALINE PHOSPHATASE [1]: 404.5 u/L; ASPARTATE AMINOTRANSFERASE [1]: 71.67 u/L; BLOOD UREA NITROGEN [1]: 15 mg/dL; CHLORIDE [1]: 103 MEQ/L; CHOLESTEROL [1]: 96.83 mg/dL; CREATINE PHOSPHOKINASE [1]: 236 u/L; CREATININE [1]: 0.43 mg/dL; GLUCOSE [1]: 186.83 mg/dL; PHOSPHORUS [1]: 12.67 mg/dL; POTASSIUM [1]: 7.1 MEQ/L; SODIUM [1]: 147.33 MEQ/L; TOTAL BILIRUBIN [1]: 0.52 mg/dL; TOTAL PROTEIN [1]: 6.18 G/DL; ABSOLUTE BASOPHIL [2]: 92 cells/µL; ABSOLUTE EOSINOPHIL [2]: 52 cells/µL; ABSOLUTE LYMPHOCYTE [2]: 6560 cells/µL; ABSOLUTE MONOCYTE [2]: 160 cells/µL; ABSOLUTE SEGMENTED NEUTROPHIL [2]: 1130 cells/µL; BASOPHIL [2]: 1.14% and 0.92%; EOSINOPHIL [2]: 0.68% and 0.43%; ERYTHROCYTE COUNT [2]: 7.51 x10E6/uL and 7.03 x10E6/uL; HEMATOCRIT [2]: 46.04% and 46.55%; HEMOGLOBIN [2]: 15.62 G/DL and 14.32 G/DL; LEUKOCYTE COUNT [2]: 8.03 x10E3/uL and 12.22 x10E3/uL; LYMPHOCYTE [2]: 81.54% and 82.65%; MEAN CORPUSCULAR HEMOGLOBIN [2]: 20.84 pg and 20.35 pg; MEAN CORPUSCULAR HEMOGLOBIN CONCENTRATION [2]: 33.94 G/DL and 30.77 G/DL; MEAN CORPUSCULAR VOLUME [2]: 61.42 fL and 66.28 fL; MONOCYTE [2]: 2% and 2.28%; NEUTROPHIL [2]: 14.24% and 12.73%; PLATELET COUNT [2]: 1427.2 x10E3/uL and 1268.67 x10E3/uL; ALANINE AMINOTRANSFERASE [2]: 35.6 u/L and 44.5 u/L; ALBUMIN [2]: 3.64 G/DL and 3.73 G/DL; ALKALINE PHOSPHATASE [2]: 233 u/L and 340.83 u/L; ASPARTATE AMINOTRANSFERASE [2]: 81 u/L and 66.5 u/L; BLOOD UREA NITROGEN [2]: 12 mg/dL and 13.33 mg/dL; CHLORIDE [2]: 109.4 MEQ/L and 102.17 MEQ/L; CHOLESTEROL [2]: 47.6 mg/dL and 82.17 mg/dL; CREATINE PHOSPHOKINASE [2]: 183.2 u/L and 146.67 u/L; CREATININE [2]: 0.4 mg/dL and 0.35 mg/dL; GLUCOSE [2]: 134.6 mg/dL and 186.17 mg/dL; LACTATE DEHYDROGENASE [2]: 89.4 u/L; LIPASE [2]: 17.2 u/L; PHOSPHORUS [2]: 13.02 mg/dL and 11.83 mg/dL; POTASSIUM [2]: 7 MEQ/L and 6.47 MEQ/L; SODIUM [2]: 149.6 MEQ/L and 148.83 MEQ/L; TOTAL PROTEIN [2]: 6.06 G/DL and 6.27 G/DL; URIC ACID [2]: 1.04 mg/dL; ABSOLUTE BASOPHIL [3]: 130 cells/µL; ABSOLUTE EOSINOPHIL [3]: 70 cells/µL; ABSOLUTE LYMPHOCYTE [3]: 8670 cells/µL; ABSOLUTE MONOCYTE [3]: 160 cells/µL; ABSOLUTE SEGMENTED NEUTROPHIL [3]: 1530 cells/µL; BASOPHIL [3]: 1.13%; EOSINOPHIL [3]: 0.66%; ERYTHROCYTE COUNT [3]: 9.13 x10E6/uL; HEMATOCRIT [3]: 48.47%; HEMOGLOBIN [3]: 16.56 G/DL; LEUKOCYTE COUNT [3]: 10.5 x10E3/uL; LYMPHOCYTE [3]: 81.63%; MEAN CORPUSCULAR HEMOGLOBIN [3]: 18.16 pg; MEAN CORPUSCULAR HEMOGLOBIN CONCENTRATION [3]: 34.14 G/DL; MEAN CORPUSCULAR VOLUME [3]: 53.14 fL; MONOCYTE [3]: 1.53%; NEUTROPHIL [3]: 14.71%; PLATELET COUNT [3]: 1280.22 x10E3/uL; ALANINE AMINOTRANSFERASE [3]: 28.89 u/L; ALBUMIN [3]: 3.69 G/DL; ALKALINE PHOSPHATASE [3]: 101.11 u/L; ASPARTATE AMINOTRANSFERASE [3]: 70.67 u/L; BLOOD UREA NITROGEN [3]: 16.78 mg/dL; CHLORIDE [3]: 104.56 MEQ/L; CHOLESTEROL [3]: 58.78 mg/dL; CREATINE PHOSPHOKINASE [3]: 91.22 u/L; CREATININE [3]: 0.61 mg/dL; GLUCOSE [3]: 142.33 mg/dL; LACTATE DEHYDROGENASE [3]: 81.67 u/L; LIPASE [3]: 13 u/L; PHOSPHORUS [3]: 7.54 mg/dL; POTASSIUM [3]: 6.27 MEQ/L; SODIUM [3]: 149.89 MEQ/L; TOTAL BILIRUBIN [3]: 0.19 mg/dL; TOTAL PROTEIN [3]: 7.12 G/DL; URIC ACID [3]: 0.97 mg/dL; ABSOLUTE BASOPHIL [4]: 150 cells/µL; ABSOLUTE EOSINOPHIL [4]: 54 cells/µL; ABSOLUTE LYMPHOCYTE [4]: 8890 cells/µL; ABSOLUTE MONOCYTE [4]: 190 cells/µL; ABSOLUTE SEGMENTED NEUTROPHIL [4]: 2250 cells/µL; BASOPHIL [4]: 1.26%; EOSINOPHIL [4]: 0.46%; ERYTHROCYTE COUNT [4]: 8.34 x10E6/uL; HEMATOCRIT [4]: 48.66%; HEMOGLOBIN [4]: 16.04 G/DL; LEUKOCYTE COUNT [4]: 11.58 x10E3/uL; LYMPHOCYTE [4]: 76.74%; MEAN CORPUSCULAR HEMOGLOBIN [4]: 19.2 pg; MEAN CORPUSCULAR HEMOGLOBIN CONCENTRATION [4]: 32.92 G/DL; MEAN CORPUSCULAR VOLUME [4]: 58.32 fL; MONOCYTE [4]: 1.76%; NEUTROPHIL [4]: 19.44%; PLATELET COUNT [4]: 1282.6 x10E3/uL; ALANINE AMINOTRANSFERASE [4]: 27 u/L; ALBUMIN [4]: 3.68 G/DL; ALKALINE PHOSPHATASE [4]: 146.2 u/L; ASPARTATE AMINOTRANSFERASE [4]: 66.6 u/L; BLOOD UREA NITROGEN [4]: 12.4 mg/dL; CHLORIDE [4]: 104.6 MEQ/L; CHOLESTEROL [4]: 59.6 mg/dL; CREATINE PHOSPHOKINASE [4]: 121.8 u/L; CREATININE [4]: 0.6 mg/dL; GLUCOSE [4]: 143 mg/dL; LACTATE DEHYDROGENASE [4]: 87.8 u/L; LIPASE [4]: 17.4 u/L; PHOSPHORUS [4]: 8.68 mg/dL; POTASSIUM [4]: 6.02 MEQ/L; SODIUM [4]: 152.8 MEQ/L; TOTAL BILIRUBIN [4]: 0.26 mg/dL; TOTAL PROTEIN [4]: 6.92 G/DL; URIC ACID [4]: 0.52 mg/dL; ABSOLUTE BASOPHIL [5]: 80 cells/µL; ABSOLUTE EOSINOPHIL [5]: 62 cells/µL; ABSOLUTE LYMPHOCYTE [5]: 9510 cells/µL; ABSOLUTE MONOCYTE [5]: 180 cells/µL; ABSOLUTE SEGMENTED NEUTROPHIL [5]: 1430 cells/µL; BASOPHIL [5]: 0.74%; EOSINOPHIL [5]: 0.56%; ERYTHROCYTE COUNT [5]: 7.55 x10E6/uL; HEMATOCRIT [5]: 45.54%; HEMOGLOBIN [5]: 15.6 G/DL; LEUKOCYTE COUNT [5]: 11.31 x10E3/uL; LYMPHOCYTE [5]: 84.24%; MEAN CORPUSCULAR HEMOGLOBIN [5]: 20.68 pg; MEAN CORPUSCULAR HEMOGLOBIN CONCENTRATION [5]: 34.26 G/DL; MEAN CORPUSCULAR VOLUME [5]: 60.36 fL; MONOCYTE [5]: 1.58%; NEUTROPHIL [5]: 12.46%; PLATELET COUNT [5]: 1331 x10E3/uL; ALANINE AMINOTRANSFERASE [5]: 31.8 u/L; ALBUMIN [5]: 3.5 G/DL; ALKALINE PHOSPHATASE [5]: 221.2 u/L; ASPARTATE AMINOTRANSFERASE [5]: 79.4 u/L; BLOOD UREA NITROGEN [5]: 10.4 mg/dL; CHLORIDE [5]: 108.8 MEQ/L; CHOLESTEROL [5]: 59.4 mg/dL; CREATINE PHOSPHOKINASE [5]: 166.8 u/L; CREATININE [5]: 0.52 mg/dL; GLUCOSE [5]: 110.6 mg/dL; LACTATE DEHYDROGENASE [5]: 103.8 u/L; LIPASE [5]: 24.4 u/L; PHOSPHORUS [5]: 11.66 mg/dL; POTASSIUM [5]: 6.5 MEQ/L; SODIUM [5]: 151 MEQ/L; TOTAL BILIRUBIN [5]: 0.2 mg/dL; TOTAL PROTEIN [5]: 6.1 G/DL; URIC ACID [5]: 0.72 mg/dL; ABSOLUTE BASOPHIL [6]: 410 cells/µL; ABSOLUTE EOSINOPHIL [6]: 110 cells/µL; ABSOLUTE LYMPHOCYTE [6]: 11200 cells/µL; ABSOLUTE MONOCYTE [6]: 290 cells/µL; ABSOLUTE SEGMENTED NEUTROPHIL [6]: 3040 cells/µL; BASOPHIL [6]: 2.71%
